Test results reported in patent US7206699B2, “Methods for measuring therapy resistance” (Virco N.V., priority 2000, dated 2007).
Like-named read-outs stand apart in the source and are kept apart here.

Test system: HIV-1
Details: for Geometric Mean Phenotype: fold change in IC50 vs wild type; for Average Phenotype (log): log fold change
[1] = RT codon 41 ANY, 184 ANY, 215 ANY, N 13255
[2] = RT codon 41 L, 184 WT, 215 WT, N 54
[3] = RT codon 41 WT, 184 V/I, 215 F/Y, N 673
[4] = RT codon 41 WT, 184 V/I, 215 WT, N 2172
[5] = RT codon 41 WT, 184 WT, 215 WT, N 4826

Description: The whole process can be divided into three phases: molecular biology, transfection and susceptibility testing.
• Viral RNA fragments extracted from patient's blood sample • Complementary DNA (cDNA) of the gag-PR-RT sequence, through to codon 400 formed via reverse transcription • Gag-PT-RT sequence multiplied using two rounds of PCR • Purification of the DNA fragments • Creation of laboratory proviral clone with gag-PR-RT sequence deleted • Insertion of the clone into bacterial plasmids for reproduction of large quantities. Transfection This is the process by which viral genes are transferred to a cell. • 1. The gag-PR-RT sequences from the patient sample and the plasmid fragments are mixed with CD4+, MT4 cells. • 2. Electroporation takes place: the cells are subject to a short (milliseconds), but strong current in a cuvette producing transient openings in the cell membrane, through which both the gag-PR-RT DNA fragment and the plasmid fragment enter. • 3. In a relatively small proportion of the cells, both fragments will meet up and, probably supported by a cellular enzyme, recombine to form a complete HIV-1 genome that can now be converted into infectious virus particles. • 4. The recombinant virus is then grown in this cell culture for approximately 8 days, until the cytopathogenic effect or CPE reaches a sufficient level. • 5. The medium is then centrifuged to separate out the cells and the supernatant contains large quantities of recombinant virus—the virus stock harvest. • 6. The virus is then titrated to achieve a known concentration. Susceptibility Testing
Different concentrations of the antiviral agents are placed in the 384 microwells of a microtiter test plate. Several wells are used for each concentration and the mean results used to increase reliability. • 2. A set dilution of the recombinant virus stock or wild type control virus is added to each microwell. • 3. A set dilution of MT4 cells containing a fluorescent reporter gene system is also added to each microwell. • 4. The plate is incubated for 3 days during which time the recombinant virus will replicate in the MT4 cells unless inhibited by the antiviral drug. Replication triggers the reporter gene, which produces proteins which fluoresce. • 5. The amount of viral replication at each concentration of drug is measured by computerized spectrophotometry, relative to the wild type virus controls. • 6. The susceptibility of the virus to each drug is expressed as a fold change in IC50 relative to wild type virus. • 7.
Plasma samples were obtained from patients and submitted to laboratories for routine assessment of drug susceptibility.

SMILES: Cc1cn([C@H]2C[C@H](N=[N+]=[N-])[C@@H](CO)O2)c(=O)[nH]c1=O [AZT, zidovudine]
- Geometric Mean Phenotype [1]: 3.9 fold
- Geometric Mean Phenotype [2]: 1.7 fold
- Geometric Mean Phenotype [3]: 6.2 fold
- Geometric Mean Phenotype [4]: 1.3 fold
- Geometric Mean Phenotype [5]: 1.3 fold
- mean fold resistance, increase (genetic clusters with multiple mutations conferring AZT resistance, FIG. 8): ~100 fold
- effect of including the 184V mutation together with AZT resistance mutations (genetic clusters with vs without 184V/I, FIG. 8): substantial reduction in the predicted magnitude of AZT resistance
- Average Phenotype (log) [1]: 0.59
- Average Phenotype (log) [2]: 0.24
- Average Phenotype (log) [3]: 0.79
- Average Phenotype (log) [4]: 0.10
- Average Phenotype (log) [5]: 0.12
- mean fold resistance of genetic cluster, in words (virus harbouring the 184V mutation, FIG. 8): slightly reduced level of susceptibility
